Structures can show the parent of a compound that is named as a salt. The source made the active and inactive calls.
Legend:
Type in all cases: functional
[1] = target: Induced myeloid leukemia cell differentiation protein Mcl-1 (Homo sapiens, UniProt Q07820)
Ion channel NompC = Ion channel NompC (Danio rerio, UniProt Q7T1G6); experiment: Dose response cell-based high-throughput screening assay for agonists of the transient receptor potential channel N1 (TRPN1). [Related pubchem assays (depositor defined):AID1424, AID1448]
Mucolipin-3 = target: T1, Mucolipin-3 (Homo sapiens, UniProt Q8TDD5); experiment: Fluorescence counterscreen assay for […] agonists: dose response cell-based high-throughput screening assay to identify agonists of the transient receptor potential channel ML3 (TRPML3). [Related pubchem assays: 1424, 1448 ]
T1 sequence (Q8TDD5 whole entry): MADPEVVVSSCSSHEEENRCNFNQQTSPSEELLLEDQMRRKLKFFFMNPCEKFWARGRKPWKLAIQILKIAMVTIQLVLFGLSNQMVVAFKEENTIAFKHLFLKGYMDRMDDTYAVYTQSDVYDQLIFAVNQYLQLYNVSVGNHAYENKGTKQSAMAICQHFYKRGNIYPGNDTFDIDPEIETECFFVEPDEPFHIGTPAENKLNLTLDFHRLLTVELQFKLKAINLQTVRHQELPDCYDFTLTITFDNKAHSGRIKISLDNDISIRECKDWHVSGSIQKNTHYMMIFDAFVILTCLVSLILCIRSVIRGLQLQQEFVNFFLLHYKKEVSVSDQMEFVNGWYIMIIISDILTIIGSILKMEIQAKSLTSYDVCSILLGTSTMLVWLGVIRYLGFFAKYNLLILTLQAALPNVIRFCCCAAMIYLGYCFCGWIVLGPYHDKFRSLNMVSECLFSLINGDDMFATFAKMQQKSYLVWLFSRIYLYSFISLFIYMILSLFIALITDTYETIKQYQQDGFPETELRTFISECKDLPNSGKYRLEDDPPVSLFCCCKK

[2] = target: T2, Rac GTPase-activating protein 1 (Homo sapiens, UniProt Q9H0H5); experiment: blockers of MgcRacGAP-driven Rac1 GTP hydrolysis – biochemical, ADP Hunter fluorescence, primary and confirmatory, confirmation (AID 624330)
T2 sequence (Q9H0H5 whole entry): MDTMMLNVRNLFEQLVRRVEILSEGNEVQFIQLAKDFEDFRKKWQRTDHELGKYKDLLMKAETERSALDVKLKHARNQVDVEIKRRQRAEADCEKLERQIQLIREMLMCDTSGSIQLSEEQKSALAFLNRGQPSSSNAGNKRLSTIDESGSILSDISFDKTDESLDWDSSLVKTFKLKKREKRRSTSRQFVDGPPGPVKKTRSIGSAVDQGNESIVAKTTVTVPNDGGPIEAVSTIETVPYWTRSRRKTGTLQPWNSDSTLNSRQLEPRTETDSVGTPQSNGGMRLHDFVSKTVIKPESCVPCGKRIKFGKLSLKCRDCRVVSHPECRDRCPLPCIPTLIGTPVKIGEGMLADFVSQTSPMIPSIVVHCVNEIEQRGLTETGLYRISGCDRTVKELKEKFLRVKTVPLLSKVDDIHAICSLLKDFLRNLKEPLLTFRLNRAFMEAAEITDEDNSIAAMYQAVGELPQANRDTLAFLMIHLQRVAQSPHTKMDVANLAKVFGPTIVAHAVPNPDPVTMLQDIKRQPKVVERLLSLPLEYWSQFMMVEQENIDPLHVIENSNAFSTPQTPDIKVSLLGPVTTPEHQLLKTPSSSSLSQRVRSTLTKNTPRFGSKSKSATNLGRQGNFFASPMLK

[3] = HEK-293T viability loss, compound-treated – cell-based, uHTS hits, cytotoxicity control for B/T-cell NF-kB inhibitor project, dose response (AID 489019);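 also: IC50 reflects cytotoxicity as loss of cell viability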
BJ = experiment: growth inhibition of engineered Ras-driven BJ cells – cell-based, alamar blue fluorescence, cherrypicked samples, dose response (AID 2631); conditions: Homo sapiens;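 also: confirmatory dose-response assay in RAS-dependent BJ fibroblasts engineered with TERT, LT and ST, with cytotoxicity read by fluorescence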
[4] = microbe, parasite or virus in culture; conditions: Mycobacterium tuberculosis
Hexokinase-1 = target: T3, Hexokinase-1 (Homo sapiens, UniProt P19367); experiment: HK1 enzyme activation by HKDC1 hits – biochemical, selectivity assay for HKDC1 activator project, dose response (AID 504762)
T3 sequence (P19367 whole entry): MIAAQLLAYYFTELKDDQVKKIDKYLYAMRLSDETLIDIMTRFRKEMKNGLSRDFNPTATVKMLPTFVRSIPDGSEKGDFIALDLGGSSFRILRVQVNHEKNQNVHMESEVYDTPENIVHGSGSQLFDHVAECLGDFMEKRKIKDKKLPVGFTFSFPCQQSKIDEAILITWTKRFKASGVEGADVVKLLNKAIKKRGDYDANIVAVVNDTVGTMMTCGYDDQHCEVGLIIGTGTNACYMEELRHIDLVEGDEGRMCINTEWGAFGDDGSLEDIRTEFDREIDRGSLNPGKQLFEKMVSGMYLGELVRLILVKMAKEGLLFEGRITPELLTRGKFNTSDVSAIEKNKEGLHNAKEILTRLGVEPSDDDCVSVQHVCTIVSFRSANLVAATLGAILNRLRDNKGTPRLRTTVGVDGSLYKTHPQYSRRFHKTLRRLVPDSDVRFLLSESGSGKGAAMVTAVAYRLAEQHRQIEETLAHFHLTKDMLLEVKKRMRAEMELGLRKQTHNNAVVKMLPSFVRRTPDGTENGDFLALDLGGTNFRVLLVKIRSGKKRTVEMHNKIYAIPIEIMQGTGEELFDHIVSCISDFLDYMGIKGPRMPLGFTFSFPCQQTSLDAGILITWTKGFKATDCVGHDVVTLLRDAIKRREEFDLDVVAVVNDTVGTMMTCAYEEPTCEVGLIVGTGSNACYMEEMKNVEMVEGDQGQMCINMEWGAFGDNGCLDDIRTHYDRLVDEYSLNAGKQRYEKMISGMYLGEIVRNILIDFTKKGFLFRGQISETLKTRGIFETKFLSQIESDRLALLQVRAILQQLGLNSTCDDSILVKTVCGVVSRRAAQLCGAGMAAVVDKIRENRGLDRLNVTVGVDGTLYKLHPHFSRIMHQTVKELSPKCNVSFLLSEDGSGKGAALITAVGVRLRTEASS

Hexokinase HKDC1 = target: T4, Hexokinase HKDC1 (Homo sapiens, UniProt Q2TB90); experiment: activation of HKDC1 glucose phosphorylation – biochemical, W721R variant, dose response (AID 504730)
T4 sequence (Q2TB90 whole entry): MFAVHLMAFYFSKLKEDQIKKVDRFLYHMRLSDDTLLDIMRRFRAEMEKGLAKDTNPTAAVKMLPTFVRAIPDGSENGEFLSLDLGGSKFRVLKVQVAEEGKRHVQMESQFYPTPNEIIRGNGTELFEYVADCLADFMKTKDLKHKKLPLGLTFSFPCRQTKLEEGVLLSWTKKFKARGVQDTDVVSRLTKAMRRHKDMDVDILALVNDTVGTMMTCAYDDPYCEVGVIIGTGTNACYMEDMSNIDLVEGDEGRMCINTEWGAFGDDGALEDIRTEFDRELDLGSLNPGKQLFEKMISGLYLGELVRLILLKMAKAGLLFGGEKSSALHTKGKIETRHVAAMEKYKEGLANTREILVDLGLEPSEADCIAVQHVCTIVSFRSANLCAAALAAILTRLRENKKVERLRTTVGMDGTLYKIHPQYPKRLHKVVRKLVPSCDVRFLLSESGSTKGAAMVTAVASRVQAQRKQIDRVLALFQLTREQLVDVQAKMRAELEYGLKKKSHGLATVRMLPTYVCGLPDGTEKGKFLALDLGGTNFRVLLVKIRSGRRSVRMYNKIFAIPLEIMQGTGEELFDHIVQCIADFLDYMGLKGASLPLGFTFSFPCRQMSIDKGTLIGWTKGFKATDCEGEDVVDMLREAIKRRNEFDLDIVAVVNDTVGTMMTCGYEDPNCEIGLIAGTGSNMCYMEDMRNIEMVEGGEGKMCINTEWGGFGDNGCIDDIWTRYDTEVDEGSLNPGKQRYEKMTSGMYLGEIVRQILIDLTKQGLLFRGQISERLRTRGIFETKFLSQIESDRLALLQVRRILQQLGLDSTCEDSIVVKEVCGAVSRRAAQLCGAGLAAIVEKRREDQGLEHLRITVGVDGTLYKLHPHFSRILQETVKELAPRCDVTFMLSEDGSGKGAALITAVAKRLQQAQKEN

Coagulation factor XII = Coagulation factor XII (Homo sapiens, UniProt P00748);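 also: activated factor XIIa alpha cleaving a fluorogenic AMC peptide substrate; inhibitor potency from loss of enzyme activity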
Chain of Coagulation factor XII (P00748 20-372 limits assumed): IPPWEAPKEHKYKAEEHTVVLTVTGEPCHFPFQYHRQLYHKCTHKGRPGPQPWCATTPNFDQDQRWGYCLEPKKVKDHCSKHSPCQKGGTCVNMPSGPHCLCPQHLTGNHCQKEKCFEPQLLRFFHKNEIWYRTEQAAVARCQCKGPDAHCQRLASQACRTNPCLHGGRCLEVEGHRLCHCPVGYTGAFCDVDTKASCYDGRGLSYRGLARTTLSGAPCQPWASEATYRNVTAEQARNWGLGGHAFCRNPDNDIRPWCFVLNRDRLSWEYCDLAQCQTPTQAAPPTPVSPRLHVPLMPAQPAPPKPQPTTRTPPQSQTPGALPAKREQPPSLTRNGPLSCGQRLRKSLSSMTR
Chain of Coagulation factor XII (P00748 373-615 limits assumed): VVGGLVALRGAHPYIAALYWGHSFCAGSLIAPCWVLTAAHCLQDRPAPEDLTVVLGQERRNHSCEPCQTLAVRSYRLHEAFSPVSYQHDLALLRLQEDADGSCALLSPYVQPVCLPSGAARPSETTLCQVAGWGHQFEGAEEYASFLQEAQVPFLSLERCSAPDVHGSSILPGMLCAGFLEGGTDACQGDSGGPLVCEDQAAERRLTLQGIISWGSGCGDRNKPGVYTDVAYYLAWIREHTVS

Chain of Ion channel NompC (Q7T1G6 whole entry): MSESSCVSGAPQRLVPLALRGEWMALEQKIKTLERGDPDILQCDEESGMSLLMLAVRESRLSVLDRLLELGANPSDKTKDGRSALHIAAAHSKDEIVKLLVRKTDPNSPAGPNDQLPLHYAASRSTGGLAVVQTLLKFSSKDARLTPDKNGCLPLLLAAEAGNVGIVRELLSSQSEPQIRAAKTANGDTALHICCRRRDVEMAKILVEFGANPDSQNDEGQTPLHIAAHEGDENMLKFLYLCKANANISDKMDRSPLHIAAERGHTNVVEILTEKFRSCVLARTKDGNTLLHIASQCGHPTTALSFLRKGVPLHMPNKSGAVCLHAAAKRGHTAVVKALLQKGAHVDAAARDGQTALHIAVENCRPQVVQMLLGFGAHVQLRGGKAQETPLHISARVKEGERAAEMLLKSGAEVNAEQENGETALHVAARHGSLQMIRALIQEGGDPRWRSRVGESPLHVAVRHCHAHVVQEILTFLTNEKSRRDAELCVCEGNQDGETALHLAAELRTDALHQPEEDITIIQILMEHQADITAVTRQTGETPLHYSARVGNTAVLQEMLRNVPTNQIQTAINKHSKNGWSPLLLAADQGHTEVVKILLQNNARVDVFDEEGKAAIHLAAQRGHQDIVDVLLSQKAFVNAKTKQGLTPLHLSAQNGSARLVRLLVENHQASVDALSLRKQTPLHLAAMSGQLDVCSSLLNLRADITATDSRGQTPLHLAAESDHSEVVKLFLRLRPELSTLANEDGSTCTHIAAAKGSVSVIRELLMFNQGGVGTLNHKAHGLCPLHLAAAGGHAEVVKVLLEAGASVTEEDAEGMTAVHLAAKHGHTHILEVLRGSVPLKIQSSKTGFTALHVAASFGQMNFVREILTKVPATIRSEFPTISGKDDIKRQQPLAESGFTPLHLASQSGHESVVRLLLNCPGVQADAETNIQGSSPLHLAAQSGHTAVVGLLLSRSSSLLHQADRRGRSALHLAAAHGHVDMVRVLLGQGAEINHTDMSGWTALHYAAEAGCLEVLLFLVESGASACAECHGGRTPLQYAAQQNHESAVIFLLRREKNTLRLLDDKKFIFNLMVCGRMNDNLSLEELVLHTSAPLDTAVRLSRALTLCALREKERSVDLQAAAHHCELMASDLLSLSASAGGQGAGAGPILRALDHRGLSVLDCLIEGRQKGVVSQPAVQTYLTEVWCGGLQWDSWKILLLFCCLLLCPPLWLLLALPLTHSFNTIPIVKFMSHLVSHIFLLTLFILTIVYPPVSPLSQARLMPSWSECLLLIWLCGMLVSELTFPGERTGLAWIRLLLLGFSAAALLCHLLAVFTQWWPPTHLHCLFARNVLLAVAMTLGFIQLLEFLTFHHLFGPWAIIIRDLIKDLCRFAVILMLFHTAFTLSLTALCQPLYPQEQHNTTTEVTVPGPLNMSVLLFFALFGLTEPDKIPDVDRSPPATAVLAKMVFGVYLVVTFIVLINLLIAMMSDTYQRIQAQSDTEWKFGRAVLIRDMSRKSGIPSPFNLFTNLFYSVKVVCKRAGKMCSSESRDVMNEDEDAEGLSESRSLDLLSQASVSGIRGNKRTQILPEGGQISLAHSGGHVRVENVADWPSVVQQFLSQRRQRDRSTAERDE
Chain of Induced myeloid leukemia cell differentiation protein Mcl-1 (Q07820 whole entry): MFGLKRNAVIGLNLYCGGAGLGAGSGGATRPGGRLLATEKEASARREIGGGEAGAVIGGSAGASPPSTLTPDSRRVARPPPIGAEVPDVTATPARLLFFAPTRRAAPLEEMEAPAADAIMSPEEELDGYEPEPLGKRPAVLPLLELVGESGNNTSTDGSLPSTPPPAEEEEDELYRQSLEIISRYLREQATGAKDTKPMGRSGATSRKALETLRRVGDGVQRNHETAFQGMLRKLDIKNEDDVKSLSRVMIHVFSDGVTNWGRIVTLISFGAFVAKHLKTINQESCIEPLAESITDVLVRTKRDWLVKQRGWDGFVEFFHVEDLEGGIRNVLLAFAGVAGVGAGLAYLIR

O=C1/C(=C\c2ccc(O)cc2)SC(=S)N1/N=C/c1ccc(O)cc1
IC50 [1]: 2.48 µM (active)
EC50 (Ion channel NompC): 4.9 µM (active)
EC50 (Mucolipin-3): > 29.9 µM (not active)
IC50 [2]: 105 µM (active)

COc1cccc2c1C(=O)c1c(O)c3c(c(O)c1C2=O)C[C@@](O)(C(=O)CO)C[C@@H]3O[C@H]1C[C@H](N)[C@@H](O)[C@H](C)O1 [EPIRUBICIN HYDROCHLORIDE]
IC50 [3]: > 80 µM (inactive)
EC50 (BJ): < 0.104 µM (active)
CC50 [4]: 18.7 µM (active)

COc1ccc(NC2=NN=C(c3ccc4c(c3)OCCO4)CS2)cc1
EC50 (Hexokinase-1): 23.9 µM (inactive)
EC50 (Hexokinase HKDC1): 25 µM (inactive)

COc1ccccc1CN1CCNC(=O)C1CC(=O)N(C)Cc1cnccn1 (stereo not given)
IC50 (Coagulation factor XII): > 50 µM (inactive)

From ChEMBL document CHEMBL1201862, “PubChem BioAssay data set” (2004)
